Results taken from ChEMBL document CHEMBL1681651, “A broad spectrum anticancer nucleoside with selective toxicity against human colon cells in vitro” (2011).

Legend:
Format in all cases: functional
[1] = system: DU-145; assay: Growth inhibition of human DU145 cells assessed as cell growth at 1 uM after 48 hrs by SRB assay; settings: DU-145, 48 h, read-out: Activity
[2] = Growth inhibition of human […] cells assessed as cell growth at 10 uM after 48 hrs by SRB assay; settings: read-out: Activity
[3] = system: NCI-H226; assay: Growth inhibition of human NCI-H226 cells assessed as cell growth at 10 uM after 48 hrs by SRB assay; settings: NCI-H226, 48 h, read-out: Activity
[4] = system: NCI-H460; assay: Growth inhibition of human NCI-H460 cells assessed as cell growth at 10 uM after 48 hrs by SRB assay; settings: NCI-H460, 48 h, read-out: Activity
[5] = system: NCI-H23; assay: Growth inhibition of human NCI-H23 cells after 48 hrs by […] growth inhibition assay; settings: NCI-H23, 48 h
[6] = system: HCT-116; assay: Growth inhibition of human HCT116 cells after 48 hrs by […] growth inhibition assay; settings: HCT-116, 48 h
[7] = system: HT-29; assay: Growth inhibition of human HT-29 cells after 48 hrs by […] growth inhibition assay; settings: HT-29, 48 h
[8] = system: Malme-3M; assay: Growth inhibition of human MALME-3M cells after 48 hrs by […] growth inhibition assay
[9] = system: HOP-92; assay: Growth inhibition of human HOP92 cells assessed as cell growth at 0.1 uM after 48 hrs by SRB assay; settings: HOP-92, 48 h, read-out: Activity
[10] = system: SF-295; assay: Growth inhibition of human SF295 cells assessed as cell growth at 0.1 uM after 48 hrs by SRB assay; settings: SF-295, 48 h, read-out: Activity
[11] = system: SNB-75; assay: Growth inhibition of human SNB75 cells assessed as cell growth at 0.1 uM after 48 hrs by SRB assay; settings: SNB-75, 48 h, read-out: Activity
[12] = system: CAKI-1; assay: Growth inhibition of human Caki1 cells assessed as cell growth at 0.1 uM after 48 hrs by SRB assay; settings: CAKI-1, 48 h, read-out: Activity
[13] = system: RXF 393; assay: Growth inhibition of human RXF393 cells assessed as cell growth at 0.1 uM after 48 hrs by SRB assay; settings: RXF 393, 48 h, read-out: Activity
[14] = system: TK-10; assay: Growth inhibition of human TK10 cells assessed as cell growth at 0.1 uM after 48 hrs by SRB assay; settings: TK-10, 48 h, read-out: Activity
[15] = system: MCF7; assay: Growth inhibition of human MCF7 cells assessed as cell growth at 0.1 uM after 48 hrs by SRB assay; settings: MCF7, 48 h, read-out: Activity
[16] = system: U-251; assay: Growth inhibition of human U251 cells assessed as cell growth at 10 uM after 48 hrs by SRB assay; settings: U-251, 48 h, read-out: Activity
[17] = system: SK-OV-3; assay: Growth inhibition of human SKOV3 cells assessed as cell growth at 10 uM after 48 hrs by SRB assay; settings: SK-OV-3, 48 h, read-out: Activity
[18] = system: A498; assay: Growth inhibition of human A498 cells assessed as cell growth at 10 uM after 48 hrs by SRB assay; settings: A498, 48 h, read-out: Activity
[19] = system: MDA-MB-231; assay: Growth inhibition of human MDA-MB-231 cells assessed as cell growth at 10 uM after 48 hrs by SRB assay; settings: MDA-MB-231, 48 h, read-out: Activity
[20] = system: BT-549; assay: Growth inhibition of human BT549 cells assessed as cell growth at 10 uM after 48 hrs by SRB assay; settings: BT-549, 48 h, read-out: Activity
[21] = system: CCRF-CEM; assay: Growth inhibition of human CCRF-CEM cells assessed as cell growth at 100 uM after 48 hrs by SRB assay; settings: read-out: Activity
[22] = Growth inhibition of human […] cells assessed as cell growth at 100 uM after 48 hrs by SRB assay; settings: read-out: Activity
[23] = system: EKVX; assay: Growth inhibition of human EKVX cells assessed as cell growth at 100 uM after 48 hrs by SRB assay; settings: read-out: Activity
[24] = system: SNB-75; assay: Growth inhibition of human SNB75 cells assessed as cell growth at 100 uM after 48 hrs by SRB assay; settings: SNB-75, 48 h, read-out: Activity
[25] = system: OVCAR-5; assay: Growth inhibition of human OVCAR5 cells assessed as cell growth at 100 uM after 48 hrs by SRB assay; settings: OVCAR-5, 48 h, read-out: Activity
[26] = system: A498; assay: Growth inhibition of human A498 cells assessed as cell growth at 100 uM after 48 hrs by SRB assay; settings: A498, 48 h, read-out: Activity
[27] = system: MDA-MB-231; assay: Growth inhibition of human MDA-MB-231 cells assessed as cell growth at 100 uM after 48 hrs by SRB assay; settings: MDA-MB-231, 48 h, read-out: Activity
[28] = system: HOP-92; assay: Growth inhibition of human HOP92 cells assessed as cell growth at 1 mM after 48 hrs by SRB assay; settings: HOP-92, 48 h, read-out: Activity
[29] = system: HCT-15; assay: Growth inhibition of human HCT15 cells assessed as cell growth at 1 mM after 48 hrs by SRB assay; settings: HCT-15, 48 h, read-out: Activity
[30] = system: SK-OV-3; assay: Growth inhibition of human SKOV3 cells assessed as cell growth at 1 mM after 48 hrs by SRB assay; settings: SK-OV-3, 48 h, read-out: Activity
[31] = system: NCI/ADR-RES; assay: Growth inhibition of human NCI/ADR-RES cells after 48 hrs by SRB assay
[32] = system: NCI-H226; assay: Growth inhibition of human NCI-H226 cells assessed as cell growth at 1 uM after 48 hrs by SRB assay; settings: NCI-H226, 48 h, read-out: Activity
[33] = system: NCI-H460; assay: Growth inhibition of human NCI-H460 cells assessed as cell growth at 1 uM after 48 hrs by SRB assay; settings: NCI-H460, 48 h, read-out: Activity
[34] = system: SK-MEL-2; assay: Growth inhibition of human SK-MEL-2 cells assessed as cell growth at 1 uM after 48 hrs by SRB assay; settings: SK-MEL-2, 48 h, read-out: Activity
[35] = system: UACC-62; assay: Growth inhibition of human UACC62 cells assessed as cell growth at 1 uM after 48 hrs by SRB assay; settings: UACC-62, 48 h, read-out: Activity
[36] = read-out: LC50 (the source's name)
[37] = read-out: pLC50 (the source's name) (converted)

SMILES: CNC(=O)NC[C@H]1O[C@@H](n2cnc3c(NC(=O)Nc4ccccc4)ncnc32)[C@H](O[Si](C)(C)C(C)(C)C)[C@@H]1O[Si](C)(C)C(C)(C)C
- growth at 1 µM [1]: 107%
- growth at 10 µM [2]: 98%
- growth at 10 µM [3]: 105%
- growth at 10 µM [4]: 88%
- GI50 ([5]; read-out: GI50): 3.17 µM
- CC50 [5, 36]: 86 µM
- TGI ([5]; read-out: TGI): 9.07 µM
- GI50 ([5]; read-out: pGI50 (converted)): 3.16 µM
- CC50 [5, 37]: 85.1 µM
- TGI ([5]; read-out: pTGI (converted)): 9.12 µM
- GI50 ([6]; read-out: GI50): 2110 nM
- CC50 [6, 36]: 8.8 µM
- TGI ([6]; read-out: TGI): 4.31 µM
- GI50 ([6]; read-out: pGI50 (converted)): 2090 nM
- CC50 [6, 37]: 8.71 µM
- TGI ([6]; read-out: pTGI (converted)): 4.27 µM
- GI50 ([7]; read-out: GI50): 2.02 µM
- CC50 [7, 36]: 6.91 µM
- TGI ([7]; read-out: TGI): 3.73 µM
- GI50 ([7]; read-out: pGI50 (converted)): 2 µM
- CC50 [7, 37]: 6.92 µM
- TGI ([7]; read-out: pTGI (converted)): 3.72 µM
- GI50 ([8]; read-out: GI50): 2.98 µM
- LC50 (concentration killing 50% of cells) ([8]; read-out: LC50): > 100 µM
- TGI ([8]; read-out: TGI): 9.84 µM
- GI50 ([8]; read-out: pGI50 (converted)): 2.95 µM
- LC50 (concentration killing 50% of cells) ([8]; read-out: pLC50 (converted)): > 100 µM
- TGI ([8]; read-out: pTGI (converted)): 9.77 µM
- growth at 0.1 µM [9]: 85%
- growth at 0.1 µM [10]: 103%
- growth at 0.1 µM [11]: 94%
- growth at 0.1 µM [12]: 103%
- growth at 0.1 µM [13]: 98%
- growth at 0.1 µM [14]: 110%
- growth at 0.1 µM [15]: 99%
- growth at 10 µM [16]: 93%
- growth at 10 µM [17]: 107%
- growth at 10 µM [18]: 90%
- growth at 10 µM [19]: 106%
- growth at 10 µM [20]: 103%
- growth at 100 µM [21]: 9%
- growth at 100 µM [22]: 5%
- growth at 100 µM [23]: 9%
- growth at 100 µM [24]: 14%
- growth at 100 µM [25]: 29%
- growth at 100 µM [26]: -39%
- growth at 100 µM [27]: -29%
- growth at 1000 µM [28]: -50%
- growth at 1000 µM [29]: 6%
- growth at 1000 µM [30]: 8%
- GI50 ([31]; read-out: GI50): 3.72 µM
- CC50 [31, 36]: > 100 µM
- TGI ([31]; read-out: TGI): 20.7 µM
- GI50 ([31]; read-out: pGI50 (converted)): 3.72 µM
- CC50 [31, 37]: > 100 µM
- TGI ([31]; read-out: pTGI (converted)): 20.9 µM
- growth at 1 µM [32]: 106%
- growth at 1 µM [33]: 93%
- growth at 1 µM [34]: 110%
- growth at 1 µM [35]: 100%

SMILES: CCOC(=O)C[C@H]1[C@@H](O[Si](C)(C)C(C)(C)C)[C@H](n2cnc3c(NC(=O)Nc4ccccc4)ncnc32)O[C@@H]1CNC(=O)NC
- growth at 1 µM [1]: 123%
- growth at 10 µM [2]: 53%
- growth at 10 µM [3]: 102%
- growth at 10 µM [4]: 101%
- GI50 ([5]; read-out: GI50): 33.3 µM
- CC50 [5, 36]: > 100 µM
- TGI ([5]; read-out: TGI): > 100 µM
- GI50 ([5]; read-out: pGI50 (converted)): 33.1 µM
- CC50 [5, 37]: > 100 µM
- TGI ([5]; read-out: pTGI (converted)): > 100 µM
- GI50 ([6]; read-out: GI50): 3200 nM
- CC50 [6, 36]: 45.6 µM
- TGI ([6]; read-out: TGI): 16.1 µM
- GI50 ([6]; read-out: pGI50 (converted)): 3240 nM
- CC50 [6, 37]: 45.7 µM
- TGI ([6]; read-out: pTGI (converted)): 16.2 µM
- GI50 ([7]; read-out: GI50): 4.2 µM
- CC50 [7, 36]: > 100 µM
- TGI ([7]; read-out: TGI): > 100 µM
- GI50 ([7]; read-out: pGI50 (converted)): 4.17 µM
- CC50 [7, 37]: > 100 µM
- TGI ([7]; read-out: pTGI (converted)): > 100 µM
- GI50 ([8]; read-out: GI50): 10.3 µM
- LC50 (concentration killing 50% of cells) ([8]; read-out: LC50): > 100 µM
- TGI ([8]; read-out: TGI): > 100 µM
- GI50 ([8]; read-out: pGI50 (converted)): 10.2 µM
- LC50 (concentration killing 50% of cells) ([8]; read-out: pLC50 (converted)): > 100 µM
- TGI ([8]; read-out: pTGI (converted)): > 100 µM
- growth at 0.1 µM [9]: 4%
- growth at 0.1 µM [10]: 91%
- growth at 0.1 µM [11]: 92%
- growth at 0.1 µM [12]: 88%
- growth at 0.1 µM [13]: 99%
- growth at 0.1 µM [14]: 98%
- growth at 0.1 µM [15]: 96%
- growth at 10 µM [16]: 94%
- growth at 10 µM [17]: 90%
- growth at 10 µM [18]: 91%
- growth at 10 µM [19]: 94%
- growth at 10 µM [20]: 110%
- growth at 100 µM [21]: 41%
- growth at 100 µM [22]: -27%
- growth at 100 µM [23]: 53%
- growth at 100 µM [24]: 32%
- growth at 100 µM [25]: 72%
- growth at 100 µM [26]: 13%
- growth at 100 µM [27]: 20%
- growth at 1000 µM [28]: -61%
- growth at 1000 µM [29]: 43%
- growth at 1000 µM [30]: 16%
- GI50 ([31]; read-out: GI50): > 100 µM
- CC50 [31, 36]: > 100 µM
- TGI ([31]; read-out: TGI): > 100 µM
- GI50 ([31]; read-out: pGI50 (converted)): > 100 µM
- CC50 [31, 37]: > 100 µM
- TGI ([31]; read-out: pTGI (converted)): > 100 µM
- growth at 1 µM [32]: 105%
- growth at 1 µM [33]: 102%
- growth at 1 µM [34]: 94%
- growth at 1 µM [35]: 102%
